For one test, the target named is C. elegans Slo-1a (Caenorhabditis elegans, UniProt Q95V25).
For test [1], the system named is Dirofilaria immitis microfilariae. The experiment in a line: In Vitro Assay 2: Dirofilaria immitis microfilariae (DIROIM L1) motility. The conditions noted are these: 72 h.

Sequence of C. elegans Slo-1a (Q95V25 whole entry): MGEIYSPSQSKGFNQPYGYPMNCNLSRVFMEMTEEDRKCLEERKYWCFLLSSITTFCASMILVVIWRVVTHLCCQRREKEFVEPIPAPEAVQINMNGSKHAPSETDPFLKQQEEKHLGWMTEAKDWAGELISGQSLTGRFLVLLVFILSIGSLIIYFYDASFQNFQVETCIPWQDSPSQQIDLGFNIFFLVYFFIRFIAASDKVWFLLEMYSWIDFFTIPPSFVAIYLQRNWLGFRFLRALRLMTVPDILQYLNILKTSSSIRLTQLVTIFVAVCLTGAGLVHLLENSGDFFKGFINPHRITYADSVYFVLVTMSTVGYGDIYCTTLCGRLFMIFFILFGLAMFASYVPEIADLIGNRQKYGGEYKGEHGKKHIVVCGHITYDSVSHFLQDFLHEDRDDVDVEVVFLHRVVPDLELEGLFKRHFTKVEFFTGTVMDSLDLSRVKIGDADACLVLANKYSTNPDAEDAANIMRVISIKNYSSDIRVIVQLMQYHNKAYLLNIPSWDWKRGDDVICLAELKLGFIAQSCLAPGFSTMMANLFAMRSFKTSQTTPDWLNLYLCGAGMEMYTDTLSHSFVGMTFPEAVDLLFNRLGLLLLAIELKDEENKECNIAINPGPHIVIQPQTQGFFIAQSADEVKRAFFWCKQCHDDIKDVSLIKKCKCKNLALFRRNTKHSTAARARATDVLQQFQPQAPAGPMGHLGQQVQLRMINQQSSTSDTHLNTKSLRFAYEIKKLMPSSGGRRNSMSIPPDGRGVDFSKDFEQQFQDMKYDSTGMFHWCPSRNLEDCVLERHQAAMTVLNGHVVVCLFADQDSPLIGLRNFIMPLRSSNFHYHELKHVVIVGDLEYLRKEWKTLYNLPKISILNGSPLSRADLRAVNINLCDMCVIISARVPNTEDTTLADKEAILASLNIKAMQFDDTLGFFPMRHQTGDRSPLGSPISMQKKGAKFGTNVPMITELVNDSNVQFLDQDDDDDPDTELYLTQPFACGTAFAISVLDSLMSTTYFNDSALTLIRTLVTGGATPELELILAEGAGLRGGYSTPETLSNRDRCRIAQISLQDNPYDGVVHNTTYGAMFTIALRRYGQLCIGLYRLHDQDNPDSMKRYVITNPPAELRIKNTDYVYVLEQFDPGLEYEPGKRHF
Description for C. elegans Slo-1a: In Vitro Assay 1: C. elegans Slo-1a—Action at a Recombinant C. elegans Cell Line
Cells were cultured at 37° C. and 5% CO2 in MEMalpha with Gutamax I (Invitrogen, Nr.: 32571), supplemented with 10% (v/v) heat inactivated fetal bovine serum (Invitrogen, Nr.: 10500), G418 (1 mg/ml, Invitrogen, Nr.: 10131). Cells were detached using Accutase (Sigma, Nr.: A6964).
Membrane Potential Measurements
Laboratory compound testing was performed on 384-well microtiter plates (MTPs, Greiner, Nr.: 781092). 8000 cells/well were plated onto 384-well MTPs and cultured for 20 to 24 hours at 37° C. and 5% CO2. After removal of the cell culture medium, the cells were washed once with tyrode (150 mM NaCl, 0.3 mM KCl, 2 mM CaCl2, 1 mM MgCl2, 0.8 mM NaH2PO4, 5 mM Glucose, 28 mM Hepes, pH 7.4) and then loaded with the voltage sensitive dye of the Membrane Potential Assay Kit diluted in tyrode for 1 h at room temperature.
After starting the measurement of fluorescence using a FLIPR Tetra(Molecular Devices, Exc. 510-545 nm, Emm. 565-625 nm), test compounds were added followed by the addition of KCl tyrode (final assay concentration: 70 mM KCl, 2 mM CaCl2, 1 mM MgCl2, 0.8 mM NaH2PO4, 5 mM Glucose, 28 mM Hepes, pH 7.4, including the voltage sensitive dye). The measurement was completed after 7 minutes.

Take `CC(C)C#Cc1cccc2c(N(C)C)c(C(=O)N[C@H]3CCOc4ccccc43)cnc12` [Example 1, (S)—N-(Chroman-4-yl)-4-(dimethylamino)-8-(3-methylbut-1-yn-1-yl)quinoline-3-carboxamide]: the EC50 (usually the concentration at which the effect is half-maximal) was 31.6 to 316 nM at C. elegans Slo-1a and under 10 µg/mL in test [1].
On the same counts, the results for `COCC#Cc1cccc2c(N(C)C)c(C(=O)N[C@H]3CCOc4ccccc43)cnc12` [Example 2, (S)—N-(Chroman-4-yl)-4-(dimethylamino)-8-(3-methoxyprop-1-yn-1-yl)quinoline-3-carboxamide] are 316 to 5010 nM and under 10 µg/mL.
For `CC(C)CCc1cccc2c(N(C)C)c(C(=O)N[C@H]3CCOc4ccccc43)cnc12` [Example 3, (S)—N-(Chroman-4-yl)-4-(dimethylamino)-8-isopentylquinoline-3-carboxamide], the EC50 at C. elegans Slo-1a was 3.16 to 31.6 nM; in test [1] it was under 1 µg/mL.
The corresponding values for `COCCCc1cccc2c(N(C)C)c(C(=O)N[C@H]3CCOc4ccccc43)cnc12` [Example 4, (S)—N-(Chroman-4-yl)-4-(dimethylamino)-8-(3-methoxypropyl)quinoline-3-carboxamide] are 316 to 5010 nM and under 10 µg/mL.
Regarding `CN(C)c1c(C(=O)N[C@H]2CCOc3ccccc32)cnc2c(C3COC3)cccc12` [Example 5, (S)—N-(Chroman-4-yl)-4-(dimethylamino)-8-(oxetan-3-yl)quinoline-3-carboxamide], the EC50 at C. elegans Slo-1a was 316 to 5010 nM; in test [1] it was under 10 µg/mL.
On the same counts, the results for `CN(C)c1c(C(=O)N[C@H]2CCOc3ccccc32)cnc2c(C3CCOCC3)cccc12` [Example 6, (S)—N-(Chroman-4-yl)-4-(dimethylamino)-8-(tetrahydro-2H-pyran-4-yl)quinoline-3-carboxamide] are 31.6 to 316 nM and under 1 µg/mL.
Take `CN(C)c1c(C(=O)N[C@H]2CCOc3ccccc32)cnc2c(C3=CCCC3)cccc12` [Example 7, (S)—N-(Chroman-4-yl)-8-(cyclopent-1-en-1-yl)-4-(dimethylamino)quinoline-3-carboxamide]: the values for the EC50 (on C. elegans Slo-1a; in test [1]) were 3.16 to 31.6 nM and under 1 µg/mL, respectively.
On the same counts, the results for `CN(C)c1c(C(=O)N[C@H]2CCOc3ccccc32)cnc2c(C3CCCC3)cccc12` [Example 8, (S)—N-(Chroman-4-yl)-8-cyclopentyl-4-(dimethylamino)quinoline-3-carboxamide] are under 3.16 nM and under 0.1 µg/mL.
Regarding `C=C(C)c1cccc2c(N(C)C)c(C(=O)N[C@H]3CCOc4ccccc43)cnc12` [Example 9, (S)—N-(Chroman-4-yl)-4-(dimethylamino)-8-(prop-1-en-2-yl)quinoline-3-carboxamide], the EC50 at C. elegans Slo-1a was 31.6 to 316 nM; in test [1], under 1 µg/mL.
On to `CC(C)c1cccc2c(N(C)C)c(C(=O)N[C@H]3CCOc4ccccc43)cnc12` [Example 10, (S)—N-(Chroman-4-yl)-4-(dimethylamino)-8-isopropylquinoline-3-carboxamide], for which the figures for the EC50 (on C. elegans Slo-1a; in test [1]) were 31.6 to 316 nM and under 1 µg/mL, respectively.
Turning to `CN(C)c1c(C(=O)N[C@H]2CCOc3ccccc32)cnc2c(C3=CCCCC3)cccc12` [Example 11, (S)—N-(Chroman-4-yl)-8-(cyclohex-1-en-1-yl)-4-(dimethylamino)quinoline-3-carboxamide], the figures for the EC50 (at C. elegans Slo-1a; in test [1]) were 3.16 to 31.6 nM and under 1 µg/mL, respectively.
For the compound `CN(C)c1c(C(=O)N[C@H]2CCOc3ccccc32)cnc2c(C3CCCCC3)cccc12` [Example 12, (S)—N-(Chroman-4-yl)-8-cyclohexyl-4-(dimethylamino)quinoline-3-carboxamide], the values for the EC50 (on C. elegans Slo-1a; in test [1]) were 3.16 to 31.6 nM and under 0.1 µg/mL, respectively.
Take `CN(C)c1c(C(=O)N[C@H]2CCOc3ccccc32)cnc2c(C3=CCOCC3)cccc12` [Example 13, (S)—N-(Chroman-4-yl)-8-(3,6-dihydro-2H-pyran-4-yl)-4-(dimethylamino)quinoline-3-carboxamide]: the EC50 at C. elegans Slo-1a is 31.6 to 316 nM; in test [1], under 1 µg/mL.
The corresponding values for `CN(C)c1c(C(=O)N[C@H]2CCOc3ccccc32)cnc2c(C3=CCCCCC3)cccc12` [Example 14, (S)—N-(Chroman-4-yl)-8-(cyclohept-1-en-1-yl)-4-(dimethylamino)quinoline-3-carboxamide] are 3.16 to 31.6 nM and under 0.1 µg/mL.
As to `CN(C)c1c(C(=O)N[C@H]2CCOc3ccccc32)cnc2c(C3=CCC(C(F)(F)F)CC3)cccc12` (stereo partly drawn) [Example 16, N—((S)-Chroman-4-yl)-4-(dimethylamino)-8-(4-(trifluoromethyl)cyclohex-1-en-1-yl)quinoline-3-carboxamide], the EC50 was 3.16 to 31.6 nM on C. elegans Slo-1a and under 1 µg/mL in test [1].
On the same counts, the results for `CN(C)c1c(C(=O)N[C@H]2CCOc3ccccc32)cnc2c(C3CCC(C(F)(F)F)CC3)cccc12` (stereo partly drawn) [Example 17, N—((S)-Chroman-4-yl)-4-(dimethylamino)-8-(4-(trifluoromethyl)cyclohexyl)quinoline-3-carboxamide] are 3.16 to 31.6 nM and under 0.1 µg/mL.
For `CN(C)c1c(C(=O)N[C@H]2CCOc3ccccc32)cnc2c(C3CCC(C)(C)CC3)cccc12` [Example 19, (S)—N-(Chroman-4-yl)-4-(dimethylamino)-8-(4,4-dimethylcyclohexyl)quinoline-3-carboxamide], the EC50 at C. elegans Slo-1a is 31.6 to 316 nM; in test [1] it was under 1 µg/mL.
For the compound `CN(C)c1c(C(=O)N[C@H]2CCOc3ccccc32)cnc2c(C3CN(C(=O)OC(C)(C)C)C3)cccc12` [Example 20, tert-Butyl(S)-3-(3-(chroman-4-ylcarbamoyl)-4-(dimethylamino)quinolin-8-yl)azetidine-1-carboxylate], the EC50 on C. elegans Slo-1a was 316 to 5010 nM; in test [1], under 10 µg/mL.
The corresponding values for `CN(C)c1c(C(=O)N[C@H]2CCOc3ccccc32)cnc2c(C3=CCNCC3)cccc12` [Example 21, (S)—N-(Chroman-4-yl)-4-(dimethylamino)-8-(1,2,3,6-tetrahydropyridin-4-yl)quinoline-3-carboxamide] are 316 to 5010 nM and under 10 µg/mL.
On the same counts, the results for `C[C@H]1COCCN1c1cccc2c(N3CCOCC3)c(C(=O)N[C@H]3CCOc4ccccc43)cnc12` [Example 23, N-[(4S)-3,4-Dihydro-2H-chromen-4-yl]-8-[(3S)-3-methylmorpholin-4-yl]-4-(morpholin-4-yl)quinoline-3-carboxamide] are 316 to 5010 nM and under 10 µg/mL.
On the same counts, the results for `O=C(N[C@H]1CCOc2ccccc21)c1cnc2c(N3CCOCC3)cccc2c1N1CCOCC1` [Example 24, N-[(4S)-3,4-dihydro-2H-chromen-4-yl]-4,8-di(morpholin-4-yl)quinoline-3-carboxamide] are 316 to 5010 nM and under 10 µg/mL.
In the case of `O=C(N[C@H]1CCOc2ccccc21)c1cnc2c(NC3CCCCC3)cccc2c1N1CCOCC1` [Example 25, 8-(cyclohexylamino)-N-[(4S)-3,4-dihydro-2H-chromen-4-yl]-4-(morpholin-4-yl)quinoline-3-carboxamide], the EC50 was 3.16 to 31.6 nM on C. elegans Slo-1a and under 10 µg/mL in test [1].
On the same counts, the results for `CC(C)(C)OC(=O)Nc1cccc2c(N3CCOCC3)c(C(=O)N[C@H]3CCOc4ccccc43)cnc12` [Example 26, tert-butyl {3-[(4S)-3,4-dihydro-2H-chromen-4-ylcarbamoyl]-4-(morpholin-4-yl)quinolin-8-yl}carbamate] are 3.16 to 31.6 nM and under 0.1 µg/mL.
Take `C[C@@H]1COCCN1c1cccc2c(N3CCOCC3)c(C(=O)N[C@H]3CCOc4ccccc43)cnc12` [Example 27, N-[(4S)-3,4-dihydro-2H-chromen-4-yl]-8-[(3R)-3-methylmorpholin-4-yl]-4-(morpholin-4-yl)quinoline-3-carboxamide]: the results for the EC50 (on C. elegans Slo-1a; in test [1]) were 316 to 5010 nM and under 1 µg/mL, respectively.
In the case of `CC(=O)Nc1cccc2c(N3CCOCC3)c(C(=O)N[C@H]3CCOc4ccccc43)cnc12` [Example 28, 8-(acetylamino)-N-[(4S)-3,4-dihydro-2H-chromen-4-yl]-4-(morpholin-4-yl)quinoline-3-carboxamide], the values for the EC50 (on C. elegans Slo-1a; in test [1]) were 316 to 5010 nM and under 10 µg/mL, respectively.
For the compound `O=C(N[C@H]1CCOc2ccccc21)c1cnc2c(N3CCCCC3)cccc2c1N1CCOCC1` [Example 29, N-[(4S)-3,4-dihydro-2H-chromen-4-yl]-4-(morpholin-4-yl)-8-(piperidin-1-yl)quinoline-3-carboxamide], the EC50 on C. elegans Slo-1a is 31.6 to 316 nM; in test [1], under 0.1 µg/mL.
Regarding `CN(C)c1c(C(=O)N[C@H]2CCOc3ccccc32)cnc2c(N3CCCCC3)cccc12` [Example 30, N-[(4S)-3,4-dihydro-2H-chromen-4-yl]-4-(dimethylamino)-8-(piperidin-1-yl)quinoline-3-carboxamide], the EC50 on C. elegans Slo-1a was 31.6 to 316 nM; in test [1] it was under 1 µg/mL.
With `C[C@@H]1CN(c2cccc3c(N4CCOCC4)c(C(=O)N[C@H]4CCOc5ccccc54)cnc23)C[C@H](C)O1` [Example 31, N-[(4S)-3,4-dihydro-2H-chromen-4-yl]-8-[(2R,6S)-2,6-dimethylmorpholin-4-yl]-4-(morpholin-4-yl)quinoline-3-carboxamide], the EC50 on C. elegans Slo-1a was 31.6 to 316 nM; in test [1] it was under 10 µg/mL.
In the case of `C[C@@H]1CN(c2cccc3c(N4CCOCC4)c(C(=O)N[C@H]4CCOc5ccccc54)cnc23)C[C@@H](C)O1` [Example 32, N-[(4S)-3,4-dihydro-2H-chromen-4-yl]-8-[(2R,6R)-2,6-dimethylmorpholin-4-yl]-4-(morpholin-4-yl)quinoline-3-carboxamide], the EC50 was 316 to 5010 nM at C. elegans Slo-1a and under 1 µg/mL in test [1].
Take `CC(C)c1c(C(=O)N[C@H]2CCOc3ccccc32)cnc2c(N3CCCCC3)cccc12` [Example 35, N-[(4S)-3,4-dihydro-2H-chromen-4-yl]-8-(piperidin-1-yl)-4-(propan-2-yl)quinoline-3-carboxamide]: the EC50 was 31.6 to 316 nM at C. elegans Slo-1a and under 0.1 µg/mL in test [1].
The corresponding values for `CC(C)c1c(C(=O)N[C@H]2CCOc3ccccc32)cnc2c(N3C[C@H](C)C[C@H](C)C3)cccc12` [Example 36, N-[(4S)-3,4-dihydro-2H-chromen-4-yl]-8-[(3R,5S)-3,5-dimethylpiperidin-1-yl]-4-(propan-2-yl)quinoline-3-carboxamide] are 3.16 to 31.6 nM and under 0.1 µg/mL.

The values are drawn from patent US11254661B2, “Quinoline derivatives for treating infections with helminths” (Bayer Animal Health GMBH, priority 2017, dated 2022).
